Consider 25 compounds from PubChem BioAssay (NCI).

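Tested at 5 concentrations; 48 h exposure; 96-well plates; endpoints linearly interpolated, else capped at highest concentration. Definition used: TGI = concentration required for complete inhibition of growth.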

What all share (experiment): growth of human tumour cells (NCI), 48 h
Assay [1] has as its system ACHN renal.
Assay [2] has as its system EKVX NSCLC.
Assay [3] has as its system HCC-2998 colon.
Assay [4] has as its system HL-60(TB) leukemia.
Assay [5] relates to HT29 colon.
In assay [6] the test system is M14 melanoma.
The test system of assay [7] is NCI-H460 lung.
Assay [8] relates to NCI-H522 lung.
Assay [9] deals with OVCAR-8 ovarian.
Assay [10] has as its system UO-31 renal.

As to `Cc1cc(=O)oc2c(CNC(CC(C)C)C(=O)O)c(O)ccc12` (stereo not given), the TGI in assay [1], in [2], in assay [3], in assay [4], in assay [5] and in assay [6] was more than 100 µM each time. In addition, the TGI in assay [7], in assay [8], in assay [9] and in assay [10] was more than 100 µM in each case.
`Cc1ccc(S[C@@H](C)[C@@](O)(C(N)=O)c2ccccc2)cc1`: the TGI in assay [1], in assay [2], in assay [3], in assay [4], in assay [5] and in assay [6] was more than 100 µM each time. Moreover, the TGI in assay [7] was more than 100 µM; in [8], 33 µM; in assay [9] it was more than 100 µM; in assay [10], 30.2 µM.
For the compound `FC(F)(F)c1ccc2nc(Sc3ccc4ccccc4c3)cnc2c1`, the TGI in [1], in assay [2], in [3], in [4], in assay [5] and in [6] was more than 100 µM each time. The TGI in assay [7], in assay [8], in assay [9] and in [10] was more than 100 µM throughout.
Consider `C=C1CC2[C@H](C)C(=O)CCC2(C)C2=C1C1CCC(C(C)CCC(=C)C(C)C(=O)O)C1(C)CC2=O` (stereo not given in full), for which the TGI was more than 100 µM in [1]; more than 100 µM in [2]; more than 100 µM in assay [3]; 31.4 µM in assay [4]; more than 100 µM in assay [5]; more than 100 µM in assay [6]. Further, the TGI in [7] is more than 100 µM; in assay [8], more than 100 µM; in assay [9], more than 100 µM; in assay [10] it was 99.4 µM.
As for `O=S(=O)(O)c1cc(S(=O)(=O)O)c2c(N=Nc3ccc(N=Nc4ccccc4)cc3)c(O)ccc2c1`, the TGI in [1], in assay [2], in [3], in assay [4], in assay [5] and in assay [6] was more than 100 µM throughout. The TGI in assay [7], in assay [8], in assay [9] and in assay [10] was more than 100 µM each time.
On to `CC(=O)c1sc2[n+](c1C)C(=O)/C(=C\c1ccccc1Cl)S2`, for which the TGI in [1] was found to be 36 µM; in [2], 80.7 µM; in assay [3], 37.6 µM; in assay [4] it was 39 µM; in [5], 39.2 µM; in assay [6], 40 µM. Moreover, the TGI in assay [7] is 30.2 µM; in [8], 39 µM; in assay [9] it was 77.5 µM; in assay [10] it was 34 µM.
For the compound `CN(C)/C=C/C=C(/C=N/S(=O)(=O)C(F)(F)F)C1C=CN(S(=O)(=O)C(F)(F)F)C=C1`, the TGI in [1] was 84.7 µM; in assay [2], 87.2 µM; in [3], 78.5 µM; in assay [4], 46.4 µM; in assay [5] it was 75.2 µM; in [6], more than 100 µM. In addition, the TGI in [7] is more than 100 µM; in assay [8], 52.4 µM; in assay [9], more than 100 µM; in [10], 89.4 µM.
Regarding `CC(C)NC(=O)OCc1c(COC(=O)NC(C)C)c(-c2cc[n+](COC(=O)C3CCCCC3)cc2)n2c1CCC2`, the TGI in [1], in assay [2], in [3], in assay [4], in [5] and in [6] was more than 100 µM in each case. Moreover, the TGI in assay [7], in assay [8], in [9] and in assay [10] was more than 100 µM throughout.
With `C[C@H](CCC(=O)NCC(=O)O)[C@H]1CC[C@H]2[C@@H]3[C@H](O)C[C@@H]4C[C@H](O)CC[C@]4(C)[C@H]3CC[C@]12C`, the TGI in assay [1], in assay [2], in assay [3], in assay [4], in assay [5] and in [6] was more than 100 µM each time. The TGI in assay [7], in assay [8], in [9] and in assay [10] was more than 100 µM throughout.
Consider `CC(=O)NC1C(OCc2ccccc2)OC(CO)C(O)C1OCC(=O)N[C@@H](C)C(=O)N[C@H](CCC(=O)NCCCNc1ccc([N+](=O)[O-])c2[nH]c3ccccc3c(=O)c12)C(N)=O` (stereo not given in full), for which the TGI in assay [1], in assay [2], in assay [3], in [4], in [5] and in [6] was more than 100 µM throughout. Further, the TGI in [7], in assay [8], in [9] and in [10] was more than 100 µM in each case.
Regarding `CC(C)(C)C1=C(Br)C(OC(=O)C(F)(F)F)(C(C)(C)C)OP1(=O)c1ccccc1` (stereo not given), the TGI in [1] was more than 100 µM; in assay [2] it was 69 µM; in [3] it was more than 100 µM; in assay [4], more than 100 µM; in assay [5] it was more than 100 µM; in assay [6] it was more than 100 µM. The TGI in assay [7], in assay [8], in assay [9] and in [10] was more than 100 µM throughout.
Consider `O=P(O)(O)CN1CCNCCN(CP(=O)(O)O)CC1`, for which the TGI is more than 100 µM in assay [1]; more than 100 µM in [2]; more than 100 µM in assay [3]; 18.2 µM in [4]; more than 100 µM in [5]; more than 100 µM in [6]. In addition, the TGI in assay [7] is more than 100 µM; in assay [8] it was more than 100 µM; in assay [9], more than 51 µM; in assay [10], more than 100 µM.
`CC[C@@]1(O)C(=O)OCc2c1cc1n(c2=O)Cc2c-1nc1ccccc1c2/C=N\NC(=O)C(N)Cc1c[nH]c2ccccc12` (stereo not given in full): the TGI in assay [1] is 0.446 µM; in assay [2], more than 100 µM; in assay [3], more than 65.7 µM; in assay [4], 12.1 µM; in [5], more than 100 µM; in [6] it was 8.77 µM. Besides, the TGI in assay [7] stood at 6.42 µM; in assay [8], 32.3 µM; in assay [9] it was 25 µM; in [10], 1.48 µM.
Consider `COC(=O)c1ccc(NCC2=C(Br)C(=O)C=CC2=O)cc1Cl`, for which the TGI was 30.7 µM in assay [1]; 27.9 µM in [2]; more than 100 µM in assay [3]; more than 100 µM in assay [4]; 32.6 µM in assay [5]; 32.1 µM in assay [6]. In addition, the TGI is 32.2 µM in assay [7], 21.2 µM in assay [8], 47.1 µM in assay [9] and 34.7 µM in assay [10].
On to `CC(C)C(NC(=O)C(Cc1ccccc1)NC(=O)[C@H]1CCC[C@H]1NC(=O)C(Cc1ccc(OC(C)(C)C)cc1)NC(=O)OC(C)(C)C)C(N)=O` (stereo not given in full), for which the TGI is more than 100 µM in [1]; more than 100 µM in [2]; 30.5 µM in assay [3]; more than 100 µM in assay [4]; 53.3 µM in [5]; 33.6 µM in [6]. Moreover, the TGI in [7] is 38.8 µM; in assay [8] it was 30.7 µM; in [9] it was 34.9 µM; in assay [10] it was more than 100 µM.
Consider `CCOC(=O)C1=C(C)N(Cc2ccccc2)C2(O)C=CC(=O)C3=C(O)c4ccccc4C(=O)C312` (stereo not given), for which the TGI in assay [1] is 34.6 µM; in assay [2], 39.6 µM; in assay [3], 31.1 µM; in assay [4], 42.1 µM; in assay [5] it was more than 100 µM; in [6], 16.3 µM. The TGI in assay [7] was 24.4 µM; in assay [8], 27.2 µM; in assay [9] it was 39 µM; in assay [10], 21.5 µM.
In the case of `CC1(C)CC(=O)C2=C(C1)OC1(CC2c2ccc(Cl)cc2)CC(c2ccc(Cl)cc2)C2=C(CC(C)(C)CC2=O)O1` (stereo not given), the TGI is 38.9 µM in [1]; 34.4 µM in assay [2]; 38.5 µM in assay [3]; 24.1 µM in assay [4]; more than 100 µM in assay [5]; more than 52.1 µM in assay [6]. Further, the TGI in [7] was more than 65.1 µM; in assay [8], 27.6 µM; in assay [9], 87.5 µM; in assay [10] it was 30.7 µM.
With `O=C1N(c2ccccc2)C(=S)/C(=C/c2ccc(Cl)cc2)N1c1ccc(Cl)cc1`, the TGI is 49.1 µM in assay [1]; more than 100 µM in assay [2]; more than 100 µM in assay [3]; 74.4 µM in assay [4]; more than 100 µM in assay [5]; more than 100 µM in assay [6]. For the same compound, the TGI in assay [7] was more than 100 µM; in assay [8], 38.4 µM; in assay [9], more than 100 µM; in assay [10] it was more than 100 µM.
As to `COCCN1C(=O)C2c3[nH]c4ccccc4c3C3CCC(C(C)(C)C)CC3C2C1=O` (stereo not given), the TGI in assay [1] is more than 10 µM; in assay [2] it was 38.2 µM; in assay [3], 42.9 µM; in assay [4], 37.6 µM; in assay [5], 27 µM; in assay [6] it was 38.1 µM. The TGI in assay [7] came out at 28 µM; in [8] it was 35.7 µM; in assay [9] it was 46 µM; in assay [10], 27.2 µM.
For the compound `CN(C)CCNC(=O)c1c(O)ccc2c1c1c(n2CCc2ccccc2)C(=O)c2ccccc2C1=O`, the TGI is 23 µM in assay [1]; 28.5 µM in assay [2]; 2.96 µM in [3]; 18.1 µM in [4]; 19.3 µM in assay [5]; 3.47 µM in assay [6]. Moreover, the TGI was found to be 11.4 µM in assay [7], 23 µM in assay [8], 23.4 µM in [9] and 13.8 µM in assay [10].
Take `COc1cc(/C=N/NC2=NCCN2)ccc1O`: the TGI in assay [1], in assay [2], in assay [3], in assay [4], in [5] and in assay [6] was more than 100 µM in each case. For the same compound, the TGI in [7], in [8], in assay [9] and in [10] was more than 100 µM throughout.
Turning to `CCNC(=S)N/N=C(\C)c1cccc(C)n1`, the TGI in [1] is more than 100 µM; in assay [2], more than 100 µM; in assay [3] it was 28.9 µM; in assay [4], 53.6 µM; in assay [5], more than 100 µM; in assay [6], 26 µM. For the same compound, the TGI was 26.4 µM in [7], 26 µM in assay [8], more than 100 µM in [9] and more than 100 µM in assay [10].
As for `O=C(Nc1ccc2ccccc2c1)c1cc2cc(CCl)ccc2oc1=O`, the TGI in [1], in [2], in assay [3], in [4], in [5] and in assay [6] was more than 100 µM each time. The TGI in [7], in [8], in assay [9] and in [10] was more than 100 µM throughout.
For `C=CC[C@H](N=C(SC)SC)C(=O)N1C(=O)N(C)[C@@H](C)[C@H]1c1ccccc1`, the TGI in assay [1] is more than 100 µM; in assay [2] it was 78.4 µM; in assay [3] it was 92.2 µM; in [4], more than 100 µM; in assay [5], more than 100 µM; in [6], more than 100 µM. Also, the TGI in assay [7] is more than 100 µM; in assay [8] it was 54.1 µM; in assay [9], more than 100 µM; in assay [10] it was more than 100 µM.
Consider `CN(C)CN(C)c1nc(N(C)C)nc(N(C)CN(C)C)n1`, for which the TGI was more than 100 µM in [1]; more than 100 µM in assay [2]; more than 100 µM in [3]; 36.4 µM in assay [4]; more than 100 µM in assay [5]; more than 100 µM in assay [6]. The TGI in assay [7], in assay [8], in assay [9] and in assay [10] was more than 100 µM each time.
